Reference: patent US20060128724A1, “Pyrazole-substituted aminoheteroaryl compounds as protein kinase inhibitors” (AGOURON PHARMACEUTICALS, INC., priority 2004, published 2006)

Molecular target: T1, c-MET (HGFR) (Homo sapiens, UniProt P08581)
T1 construct: purchased Upstate 14-526
Assay: HGFR Continuous-Coupled Spectrophotometric Assay
Type: biochemical
Settings: Met-2 substrate peptide, 50 nM HGFR, 37° C.; read-out: c-Met Ki
Source text: The following in vitro assay may be used to determine the level of activity and effect of the different compounds of the present invention on one or more of the PKs. Similar assays can be designed along the same lines for any PK using techniques well known in the art.
The general procedure is as follows: compounds and kinase assay reagents are introduced into test wells. The assay is initiated by addition of the kinase enzyme. Enzyme inhibitors reduce the measured activity of the enzyme.
In the continuous-coupled spectrophotometric assay the time-dependent production of ADP by the kinase is determined by analysis of the rate of consumption of NADH by measurement of the decrease in absorbance at 340 nm. As the PK produces ADP it is re-converted to ATP by reaction with phosphoenol pyruvate and pyruvate kinase. Pyruvate is also produced in this reaction. Pyruvate is subsequently converted to lactate by reaction with lactate dehydrogenase, which simultaneously converts NADH to NAD.
HGFR Continuous-Coupled Spectrophotometric Assay
This assay analyzes the tyrosine kinase activity of HGFR on the Met-2 substrate peptide, a peptide derived from the activation loop of the HGFR.
• 1. […] Dissolve up in 200 mM HEPES, pH 7.5 at 10 mM stock. • 3. 1 M PEP (phospho-enol-pyruvate) in 200 mM HEPES, pH 7.5 • 4. 100 mM NADH (B-Nicotinamide Adenine Dinucleotide, Reduced Form) in 200 mM HEPES, pH 7.5 • 5. 4 M MgCl2 (Magnesium Chloride) in ddH2O • 6. 1 M DTT (Dithiothreitol) in 200 mM HEPES, pH 7.5 • 7. 15 Units/mL LDH (Lactic Dehydrogenase) • 8. 15 Units/mL PK (Pyruvate Kinase) • 9. 5M NaCl dissolved in ddH2O • 10. Tween-20 (Protein Grade) 10% Solution • 11. 1 M HEPES buffer: (N-[2-Hydroxethyl]piperazine-N-[2-ethanesulfonic acid]) Sodium Salt. Dissolve in ddH2O, adjust pH to 7.5, bring volume to 1 L. Filter at 0.1 μm. • 12. […] 100% DMSO (SIGMA) • 14. […] Beckman DU-650 w/micro cell holders • 18. Beckman 4-position micro cell cuvette Procedure:
Prep Dilution Buffer (DB) for Enzyme (For 30 mL prep) • 1. DB final concentration is 2 mM DTT, 25 mM NaCl2, 5 mM MgCl2, 0.01% Tween-20, and 50 mM HEPES buffer, pH 7.5. • 2. Make up 50 mM HEPES by adding 1.5 mL 1 M HEPES into 28.1 mL of ddH2O. Add rest of the reagents. Into 50 mL conical vial, add 60 μL of 1M DTT, 150 μL 5M NaCl2, 150 μL 1M MgCl2, and 30 μL of 10% Tween-20 to give total volume of 30 mL. • 3. […] Aliquot out DB at 1 mL/tube and label tubes as “DB HGFR” • 5. Note: This can be prepared and stored ahead of time. • 6. Freeze un-used aliquots in microcentrifuge tubes at −20° C. freezer. […] For compound dilution plate, add 4 μL of 10 mM stock into column 1 of plate, and bring volume to 100 μL with 100% DMSO. • 2. Set up the Precision 2000 dilution method. A final concentration of 200 μM compound in 50% DMSO, 100 mM HEPES (1:2 serial dilution). Prep Coupled Enzymatic Buffer:
1. Final concentration in assay:
• 2. For a 10 mL reaction buffer add 10 μL of 1M PEP, 33 μL of 100 mM NADH, 50 μL of 4M MgCl2, 20 μL of 1M DTT, 6 μL of 500 mM ATP, and 500 μL of 10 mM Met-2 peptide into 100 mM HEPES buffer pH 7.5 and vortex/mix. • 3. Add coupling enzymes, LDH and PK, into reaction mix. Mix by gentle inversion. Running Samples
1. Spectrophotometer settings:
• 2. Add 85 μL of CE reaction mix into each well of assay plate. • 3. Add 5 μL of diluted compound into a well of the assay plate. • 4. Add 5 μL of 50% DMSO for negative control into last column of assay plate. • 5. Mix with multi-channel pipettor or orbital shaker. • 6. Pre-incubate for 10 minutes at 37° C. • 7. Add 10 μL of 500 nM HGFR to each well of assay plate; the final HGFR concentration is 50 nM in a total final volume of 100 μL. • 8. Measure activity for 10 minutes at λ=340 nm and 37° C.

T1 sequence (P08581 974-1390 limits assumed): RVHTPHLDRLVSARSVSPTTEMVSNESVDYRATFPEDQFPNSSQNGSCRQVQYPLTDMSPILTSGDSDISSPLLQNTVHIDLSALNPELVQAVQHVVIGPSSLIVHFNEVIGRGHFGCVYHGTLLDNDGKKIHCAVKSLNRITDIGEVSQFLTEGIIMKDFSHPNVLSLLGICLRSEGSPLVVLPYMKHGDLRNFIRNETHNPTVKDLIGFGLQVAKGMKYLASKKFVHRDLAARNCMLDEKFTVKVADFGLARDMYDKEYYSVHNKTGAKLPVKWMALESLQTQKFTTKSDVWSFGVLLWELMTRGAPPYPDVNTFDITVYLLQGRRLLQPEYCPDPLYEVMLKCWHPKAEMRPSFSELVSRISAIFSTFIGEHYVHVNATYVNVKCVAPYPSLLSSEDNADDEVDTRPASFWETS

Compound | Ki
CC(C)Cn1cc(-c2cnc(N)c(OC(C)c3c(Cl)ccc(F)c3Cl)c2)cn1 (stereo not shown) [Example 22, 3-[1-(2,6-Dichloro-3-fluoro-phenyl)-ethoxy]-5-(1-isobutyl-1H-pyrazol-4-yl)-pyridin-2-ylamine] | 100 nM
CC(Oc1cc(-c2cnn(CC(C)(C)C)c2)cnc1N)c1c(Cl)ccc(F)c1Cl (stereo not shown) [Example 23, 3-[1-(2,6-Dichloro-3-fluoro-phenyl)-ethoxy]-5-[1-(2,2-dimethyl-propyl)-1H-pyrazol-4-yl]-pyridin-2-ylamine] | 120 nM
CCN(CC)CCNC(=O)C(C)(C)n1cc(-c2cnc(N)c(OC(C)c3c(Cl)ccc(F)c3Cl)c2)cn1 (stereo not shown) [Example 24, 2-(4-{6-Amino-5-[1-(2,6-dichloro-3-fluoro-phenyl)-ethoxy]-pyridin-3-yl}pyrazol-1-yl)-N-(2-diethylamino-ethyl)-isobutyramide] | 220 nM
CC(Oc1cc(-c2cnn(C3CCOC3)c2)cnc1N)c1c(Cl)ccc(F)c1Cl (stereo not shown) [Example 27, 3-[1-(2,6-Dichloro-3-fluoro-phenyl)-ethoxy]-5-[1-(tetrahydro-furan-3-yl)-1H-pyrazol-4-yl]-pyridin-2-ylamine] | 40 nM
CC(Oc1cc(-c2cnn(CC3CC4CCC3O4)c2)cnc1N)c1c(Cl)ccc(F)c1Cl (stereo not shown) [Example 28, 3-[1-(2,6-Dichloro-3-fluoro-phenyl)-ethoxy]-5-[1-(7-oxa-bicyclo[2.2.1]hept-2-ylmethyl)-1H-pyrazol-4-yl]-pyridin-2-ylamine] | 60 nM
CC(Oc1cc(-c2cnn(C(C)(C)C(=O)NCCCO)c2)cnc1N)c1c(Cl)ccc(F)c1Cl (stereo not shown) [Example 32, 2-(4-{6-Amino-5-[1-(2,6-dichloro-3-fluoro-phenyl)-ethoxy]-pyridin-3-yl}-pyrazol-1-yl)-N-(3-hydroxy-propyl)-isobutyramide] | 70 nM
Cc1nn(C(C)(C)C(=O)O)cc1-c1cnc(N)c(OC(C)c2c(Cl)ccc(F)c2Cl)c1 (stereo not shown) [Example 33, 2-(4-{6-Amino-5-[1-(2,6-dichloro-3-fluoro-phenyl)-ethoxy]-pyridin-3-yl}-3-methyl-pyrazol-1-yl)-2-methyl-propionic acid] | 130 nM
COCCNC(=O)C(C)(C)n1cc(-c2cnc(N)c(OC(C)c3c(Cl)ccc(F)c3Cl)c2)cn1 (stereo not shown) [Example 34, 2-(4-{6-Amino-5-[1-(2,6-dichloro-3-fluoro-phenyl)-ethoxy]-pyridin-3-yl}-pyrazol-1-yl)-N-(2-methoxy-ethyl)-isobutyramide] | 90 nM
CC(Oc1cc(-c2cnn(C(C)(C)C(=O)NCCO)c2)cnc1N)c1c(Cl)ccc(F)c1Cl (stereo not shown) [Example 35, 2-(4-{6-Amino-5-[1-(2,6-dichloro-3-fluoro-phenyl)-ethoxy]-pyridin-3-yl}-pyrazol-1-yl)-N-(2-hydroxy-ethyl)-isobutyramide] | 60 nM
Cc1nn(C(C)(C)C(=O)NCCCN(C)C)cc1-c1cnc(N)c(OC(C)c2c(Cl)ccc(F)c2Cl)c1 (stereo not shown) [Example 36, 2-(4-{6-Amino-5-[1-(2,6-dichloro-3-fluoro-phenyl)-ethoxy]-pyridin-3-yl}-3-methyl-pyrazol-1-yl)-N-(3-dimethylamino-propyl)-isobutyramide] | 90 nM
Cc1nn(C(C)(C)C(=O)NCCN2CCCC2)cc1-c1cnc(N)c(OC(C)c2c(Cl)ccc(F)c2Cl)c1 (stereo not shown) [Example 37, 2-(4-{6-Amino-5-[1-(2,6-dichloro-3-fluoro-phenyl)-ethoxy]-pyridin-3-yl}3-methyl-pyrazol-1-yl)-N-(2-pyrrolidin-1-yl-ethyl)-isobutyramide] | 70 nM
CC(Oc1cc(-c2cnn(C3CCN(C(C)C)CC3)c2)cnc1N)c1c(Cl)ccc(F)c1Cl (stereo not shown) [Example 38, 3-[1-(2,6-Dichloro-3-fluoro-phenyl)-ethoxy]-5-[1-(1-isopropyl-piperidin-4-yl)-1H-pyrazol-4-yl]-pyridin-2-ylamine] | 10 nM
CC(Oc1cc(-c2cnn(C3CCN(C)CC3)c2)cnc1N)c1c(Cl)ccc(F)c1Cl (stereo not shown) [Example 39, 3-[1-(2,6-Dichloro-3-fluoro-phenyl)-ethoxy]-5-[1-(1-methyl-piperidin-4-yl)-1H-pyrazol-4-yl]-pyridin-2-ylamine] | 10 nM
CC(Oc1cc(-c2cnn(C3CCN(C(=O)CO)CC3)c2)cnc1N)c1c(Cl)ccc(F)c1Cl (stereo not shown) [Example 40, 1-[4-(4-{6-Amino-5-[1-(2,6-dichloro-3-fluoro-phenyl)-ethoxy]-pyridin-3-yl}-pyrazol-1-yl)-piperidin-1-yl]-2-hydroxy-ethanone] | 10 nM
CC(=O)N1CCC(n2cc(-c3cnc(N)c(OC(C)c4c(Cl)ccc(F)c4Cl)c3)cn2)CC1 (stereo not shown) [Example 41, 1-[4-(4-{6-Amino-5-[1-(2,6-dichloro-3-fluoro-phenyl)-ethoxy]-pyridin-3-yl}-pyrazol 1-yl)-piperidin-1-yl]-ethanone] | 10 nM
CC(Oc1cc(-c2cnn(C3CCN(CC#N)CC3)c2)cnc1N)c1c(Cl)ccc(F)c1Cl (stereo not shown) [Example 42, [4-(4-{6-Amino-5-[1-(2,6-dichloro-3-fluoro-phenyl)-ethoxy]-pyridin-3-yl}-pyrazol-1-yl)-piperidin-1-yl]-acetonitrile] | 20 nM
CCN1CCC(n2cc(-c3cnc(N)c(OC(C)c4c(Cl)ccc(F)c4Cl)c3)cn2)CC1 (stereo not shown) [Example 43, 3-[1-(2,6-Dichloro-3-fluoro-phenyl)-ethoxy]-5-[1-(1-ethyl-piperidin-4-yl)-1H-pyrazol-4-yl]-pyridin-2-ylamine] | 10 nM
CC(Oc1cc(-c2cnn(C3CCN(C(=O)CN(C)C)CC3)c2)cnc1N)c1c(Cl)ccc(F)c1Cl (stereo not shown) [Example 44, 1-[4-(4-{6-Amino-5-[1-(2,6-dichloro-3-fluoro-phenyl)-ethoxy]-pyridin-3-yl}-pyrazol-1-yl)-piperidin-1-yl]-2-dimethylamino-ethanone] | 10 nM
CC(Oc1cc(-c2cnn(C3CCN(CC4CC4)CC3)c2)cnc1N)c1c(Cl)ccc(F)c1Cl (stereo not shown) [Example 45, 5-[1-(1-Cyclopropylmethyl-piperidin-4-yl)-1H-pyrazol-4-yl]-3-[1-(2,6-dichloro-3-fluoro-phenyl)-ethoxy]-pyridin-2-ylamine] | 10 nM
C[C@@H](Oc1cc(-c2cnn(C3CCN(C)CC3)c2)cnc1N)c1c(Cl)ccc(F)c1Cl [Example 46, 3-[(R)-1-(2,6-Dichloro-3-fluoro-phenyl)-ethoxy]-5-[1-(1-methyl-piperidin-4-yl)-1H-pyrazol-4-yl]-pyridin-2-ylamine] | 10 nM
C[C@@H](Oc1cc(-c2cnn(C3CCN(C(=O)CO)CC3)c2)cnc1N)c1c(Cl)ccc(F)c1Cl [Example 47, 1-[4-(4-{6-Amino-5-[(R)-1-(2,6-dichloro-3-fluoro-phenyl)-ethoxy]-pyridin-3-yl}-pyrazol-1-yl)-piperidin-1-yl]-2-hydroxy-ethanone] | 4 nM
CC(Oc1cc(-c2cnn(C3CCC3)c2)cnc1N)c1c(Cl)ccc(F)c1Cl (stereo not shown) [Example 49, 5-(1-Cyclobutyl-1H-pyrazol-4-yl)-3-[1-(2,6-dichloro-3-fluoro-phenyl)-ethoxy]-pyridin-2-ylamine] | 20 nM
